Reference: patent publication US10537610B1, “Peptide for inhibition of cancer” (priority 2018, dated 2020)
Like-named read-outs stand apart in the source and are kept apart here. Non-standard residues stand in square brackets, D forms with d. Residues, ends and D or L forms follow the SMILES beside them.

What was measured:
Assay type in all cases: cell-based, human
[1] = test system: breast cancer cells (MCF-7, MDA-MB-231) on HMEC-1 cells; experiment: Adhesion of breast cancer cells to endothelial monolayer under static conditions; conditions: P4D 500 μM
Description: The peptides were synthesized and purified by LifeTein, LLC (Somerset, N.J., USA) with the purity of not less than 95% using PeptideSyn™ technology that incorporates solid phase fluorenylmethyloxycarbonyl (Fmoc) chemistry. The cells were treated with the peptide P4D for 0, 1, 5, or 24 hours at a concentration of 500 μM. The cells treated with the Scrambled peptide P4D (Scr; 500 μM; 0, 1, 5, or 24 hours incubation time) were used as a negative control. In order to provide the positive control of the junctions tightening for impedance-based measurements of endothelial permeability, the cells were incubated with the potent activator of TJ assembly, forskolin (FSK; BioShop, Burlington, ON, Canada), for 24 hours at a concentration of 10 μM.
Adhesion of human breast cancer (MCF-7, MDA-MB-231) or non-tumorigenic (MCF-10A) human breast cells to HMEC-1 cells was performed in 24-well plates. HMEC-1 cells were seeded to the bottom of the fibronectin-coated wells 2 days before the assay to form the monolayer and subjected to a suitable treatment. Breast cancer or non-tumorigenic cells were starved overnight and on the day of the assay were labeled with CellTracker Green CMFDA Dye for 30 minutes. […] The adherent cells were lysed by 2% SDS and the fluorescence was measured using the Wallac 1420 VICTOR2 Multilabel Counter (PerkinElmer) at 492 nm of excitation and 517 nm of emission wavelengths.

[2] = test system: HMEC-1 endothelial monolayer; experiment: Macromolecular permeability of endothelial monolayer (FITC-dextran tracer assay)
Description: Macromolecular permeability of endothelial monolayer was analyzed by macromolecular tracer assay. HMEC-1 cells were grown in Transwell inserts with polyethylene terephthalate (PET) filters and 0.4-μm pores (Falcon, cat. #353095) in 24-well plates (Falcon, cat. #351147) at 1.5×10^5 cells/insert and immediately treated with P4D peptide (P4D) or with Scrambled P4D peptide (Scr) at a concentration of 500 μM (the samples indicated as 0 hours of incubation). Non-treated cells served as a control sample (Ctrl). Moreover, HMEC-1 cells were treated with P4D peptide at the following periods of time after seeding: 1 hour, 5 hours and 24 hours. One hour after the last treatment with P4D (24 hours) FITC-dextran with a molecular weight of 40 kDa was added into the inserts and the culture medium from the wells was replaced with PBS. After 1 hour incubation in darkness in a humidified incubator with the temperature of 37° C. and 5% CO2 atmosphere, the PBS from the wells (outside the inserts) was transferred into the wells of a black 96-well plate and the fluorescence was measured using the Wallac 1420 VICTOR2 Multilabel Counter (PerkinElmer, Waltham, Mass., USA) at 492 nm of excitation and 517 nm of emission wavelengths.

[3] = test system: HMEC-1 endothelial monolayer
Description: The cells were treated with the peptide P4D for 0, 1, 5, or 24 hours at a concentration of 500 μM. The cells treated with the Scrambled peptide P4D (Scr; 500 μM; 0, 1, 5, or 24 hours incubation time) were used as a negative control. In order to provide the positive control of the junctions tightening for impedance-based measurements of endothelial permeability, the cells were incubated with the potent activator of TJ assembly, forskolin (FSK; BioShop, Burlington, ON, Canada), for 24 hours at a concentration of 10 μM. Experiments based on impedance measurements were performed at Bionanopark, Ltd. (Lodz, Poland) with an ACEA xCELLigence® Real-Time Cell Analysis (RTCA) DP system (Roche, Mannheim, Germany) consisting of an RTCA DP instrument, a personal computer-based RTCA control unit and single-use electronic 16-well plates “E-Plate VIEW 16 PET”. All experiments were performed following the manufacturer's instructions. In brief, the gold-film electrodes deposited on the bottom of the “E-plate VIEW 16 PET” electrode arrays were equilibrated with MCDB 131 culture medium overnight. Subsequently, the medium was aspirated and replaced by a 100 μL of fresh medium for impedance background measurements. HMEC-1 cells were seeded at a density of 40,000 cells per well in MCDB 131 medium with supplements. After allowing cell sedimentation for 30 min at room temperature, plates were locked into the RTCA DP instrument for continuous recording of impedance changes at three different AC frequencies (10 kHz, 25 kHz, 50 kHz), which are expressed as Cell Index (CI) values. CI is a dimensionless parameter based on relative impedance changes referenced to the values of the cell-free electrode at each frequency: [formula] where N is the number of the frequency points at which the impedance was measured, whereas […] Rb(fi) are the frequency-dependent electrode resistances with cells present and without cells, respectively. Thus, CI is a quantitative measure of cell status in a well, including the cell number, cell viability, adhesion degree, and morphology. Although CI is measured at three frequencies, only the most sensitive readings are returned by the software as a function of time and reported as the final results. In general, CI values rise with increasing coverage of the electrode with cells, which is caused at an early stage by cell sedimentation and, later on, by cell proliferation. During the phase of logarithmic cell growth HMEC-1 cells were pretreated with cytokines (TNF/IFN) and after 24 hours subsequently treated with the tested compounds (Scr, P4D, or FSK). For some experiments, the cells were treated with the compounds 2 hours after the cytokines treatment. Alternatively, the compounds treatment was applied about 3 hours after HMEC-1 seeding and about 67 hours later was followed by the cytokines treatment. This experimental approach included additionally the sample designated as 'P4D & TNF/IFN' i.e. after the pretreatment with P4D the cells were subjected to the concurrent treatment with P4D and cytokines.

[4] = test system: JAM-A mRNA; experiment: RT-PCR of JAM-A mRNA in HMEC-1 cells; conditions: Tβ4 200 nM or TGF-β1 10 ng/mL

CC(C)[C@H](NC(=O)[C@H](CO)NC(=O)[C@H](N)CCCCN)C(=O)N[C@H](C(=O)N[C@H](CCCNC(=N)N)C(=O)N[C@@H](CCC(=O)O)C(=O)N[C@@H](CC(=O)O)C(=O)N[C@H](C(=O)NCC(=O)N[C@H](C(=O)N[C@@H](Cc1ccc(O)cc1)C(=O)N[C@H](C(=O)N[C@@H](CS)C(N)=O)[C@@H](C)O)[C@@H](C)O)[C@@H](C)O)[C@@H](C)O [Peptide P4D, NH2-(dK)-SVT-(dR)-EDTGTYTC-CONH2] (H-[dK]SVT[dR]EDTGTYTC-NH2)
adhesion of MECs to inflamed endothelial monolayer ([1]; HMEC-1 preincubated with TNF-α 10 ng/ml and IFN-γ 20 ng/ml for 24 hours): restrained the adhesion of MECs to the inflamed endothelial monolayer
extent of adhesion inhibition, MDA-MB-231 cells compared with other MECs ([1]; cytokine-inflamed HMEC-1): most pronounced
effect on preexisting tight junctions (FITC-dextran flux) ([2]; P4D 500 μM applied 1, 5 or 24 hours after seeding): did not disrupt the preexisting ones
transendothelial flux of 40-kDa FITC-dextran ([2]; P4D 500 μM applied immediately after the cells were seeded (0 hours)): elevated
barrier-protecting effect (Cell Index) ([3]; P4D about 2.5 hours after plating plus second supplementary dose simultaneously with cytokines ('P4D & TNF/IFN')): even more evident than that one of FSK
barrier-protecting effect (Cell Index) ([3]; P4D about 2.5 hours after plating, cytokines about 60 hours later, no supplementary dose): did not reveal any barrier-protecting properties
barrier-strengthening effect relative to forskolin ([3]; applied ~24 hours after seeding, FSK 10 μM): apparently weaker than that one of forskolin
endothelial barrier function (Cell Index) ([3]; applied ~24 hours after seeding, compared to controls): slightly strengthened endothelial barrier function
barrier-protecting effect (Cell Index) ([3]; compound applied 24 hours after treatment with inflammatory cytokines (TNF/IFN)): did not reproduce the barrier-protecting effect of FSK

Thymosin β4 (SDKPDMAEIEKFDKSKLKKTETQEKNPLPSKETIEQEKQAGES; not fully specified; Thymosin beta-4; UniProt P62328 2-44, looked up) [Tβ4]
JAM-A expression on mRNA level [4]: no observed changes of JAM-A expression on mRNA level
